Experimental findings from article PMC10818821, “Towards a New Generation of Hormone Therapies: Design, Synthesis and Biological Evaluation of Novel 1,2,3-Triazoles as Estrogen-Positive Breast Cancer Therapeutics and Non-Steroidal Aromatase Inhibitors” (Pharmaceuticals, 2024) are described below.

SMILES strings stand for the structures.

The assay has as its target T1, aromatase (CYP19) (Homo sapiens, UniProt P11511).
T1 construct: gene CYP19A1
T1 sequence (P11511 1-503): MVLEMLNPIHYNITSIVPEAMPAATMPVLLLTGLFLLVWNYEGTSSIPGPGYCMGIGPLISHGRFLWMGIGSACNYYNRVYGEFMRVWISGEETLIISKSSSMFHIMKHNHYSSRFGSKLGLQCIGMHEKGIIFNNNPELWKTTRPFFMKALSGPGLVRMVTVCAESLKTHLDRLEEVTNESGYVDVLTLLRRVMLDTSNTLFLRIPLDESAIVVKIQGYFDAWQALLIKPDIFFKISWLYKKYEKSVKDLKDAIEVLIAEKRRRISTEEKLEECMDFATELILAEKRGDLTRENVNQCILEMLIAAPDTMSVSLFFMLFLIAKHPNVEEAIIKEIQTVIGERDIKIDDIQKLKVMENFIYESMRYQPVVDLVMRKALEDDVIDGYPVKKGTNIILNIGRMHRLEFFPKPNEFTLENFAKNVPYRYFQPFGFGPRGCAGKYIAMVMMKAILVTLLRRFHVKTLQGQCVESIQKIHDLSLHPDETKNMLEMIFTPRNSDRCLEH
Put plainly: fluorogenic aromatase activity assay (Abcam kit), dose-response […]. Format: biochemical.
In general, IC50 refers to the midpoint of a concentration-inhibition curve. A high value points to weaker potency in that assay. For `COc1ccc(-n2nnc(C(C)=NN=c3sc(C(C)=O)nn3-c3ccccc3)c2C)cc1` [compound 4, 1-(5-((1-(1-(4-Methoxyphenyl)-5-methyl-1H-1,2,3-triazol-4-yl)ethylidene)hydrazono)-4-phenyl-4,5-dihydro-1,3,4-thiadiazol-2-yl)ethan-1-one], the concentration for half-maximal inhibition (IC50) came out at 3.62 µM. Take `CCOC(=O)c1nn(-c2ccc(C)cc2)c(=NN=C(C)c2nnn(-c3ccc(OC)cc3)c2C)s1` [compound 7, Ethyl 5-((1-(1-(4-Methoxyphenyl)-5-methyl-1H-1,2,3-triazol-4-yl)ethylidene) hydrazono)-4-(p-tolyl)-4,5-dihydro-1,3,4-thiadiazole-2-carboxylate]: it took 2.99 µM to reach half-maximal inhibition (IC50).

`COc1ccc(-n2nnc(C(C)=NN=c3sc(C(C)=O)nn3-c3ccc(C)cc3)c2C)cc1` [compound 5, 1-(5-((1-(1-(4-Methoxyphenyl)-5-methyl-1H-1,2,3-triazol-4-yl)ethylidene)hydrazono)-4-(p-tolyl)-4,5-dihydro-1,3,4-thiadiazol-2-yl)ethan-1-one] returned an IC50 of 1.99 µM. This IC50 is about 1.5-fold lower than that of the compound before. The value for `CCOC(=O)c1nn(-c2ccccc2)c(=NN=C(C)c2nnn(-c3ccc(OC)cc3)c2C)s1` [compound 6, Ethyl 5-((1-(1-(4-Methoxyphenyl)-5-methyl-1H-1,2,3-triazol-4-yl)ethylidene)hydrazono)-4-phenyl-4,5-dihydro-1,3,4-thiadiazole-2-carboxylate] was 3.57 µM.
